Measurements published in US10919852B2, “Immunomodulator compounds” (CHEMOCENTRYX, INC., priority 2017, dated 2021).
pIC50: −log10 of the molar value.

Target: human PD-L1 / Human PD-1 (Homo sapiens (Human), UniProt Q9NZQ7)
Experiment: Enzyme-Linked Immunosorbent Assay (ELISA), PD-1/PD-L1 binding
Settings: plate-coated human PD-L1, biotinylated human PD-1
Procedure, shortened: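 Compound dilutions (1:5 series) competed with 0.3 μg/mL biotin-labelled human PD-1 for PD-L1 immobilised at […], for 1 h at 37 °C. Read-out was A450 after streptavidin-HRP and a 20 min TMB reaction, stopped with 2 N H2SO4.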

human PD-L1 / Human PD-1, sequence (Q9NZQ7 19-239): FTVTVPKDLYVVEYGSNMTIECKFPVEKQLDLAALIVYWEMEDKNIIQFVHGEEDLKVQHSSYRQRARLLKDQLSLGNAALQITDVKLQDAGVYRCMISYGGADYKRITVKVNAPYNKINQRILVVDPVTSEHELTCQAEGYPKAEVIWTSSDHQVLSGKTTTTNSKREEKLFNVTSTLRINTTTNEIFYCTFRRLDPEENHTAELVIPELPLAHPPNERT

Structure (SMILES) | pIC50
C[C@@H](O)[C@H](NCc1cc(Cl)c(O[C@H]2CCc3c(-c4cccc(OCCCN5CCC(O)CC5)c4Cl)cccc32)cc1OCc1cncc(C#N)c1)C(=O)O | > 8.30
Cc1c(OCCCN2CCC(O)CC2)cccc1-c1cccc2c1CC[C@@H]2Oc1cc(OCc2cncc(C#N)c2)c(CN[C@@H]2CCCC[C@@H]2O)cc1Cl | > 8.30
Cc1c(OCCCN2CC3(CC(O)C3)C2)cccc1-c1cccc2c1CC[C@@H]2Oc1cc(OCc2cncc(C#N)c2)c(CN[C@H](C(=O)O)[C@@H](C)O)cc1Cl | > 8.30
COC(=O)[C@@H](NCc1cc(Cl)c(O[C@H]2CCc3c(-c4cccc(OCCCN5CCC(O)CC5)c4C)cccc32)cc1OCc1cncc(C#N)c1)[C@@H](C)O | 6.30 to 8.30
Cc1c(OCCCN2CCC(F)CC2)cccc1-c1cccc2c1CC[C@@H]2Oc1cc(OCc2cc(C#N)cc(C#N)c2)c(CN[C@@H]2CCC(=O)NC2)cc1Cl | > 8.30
N#Cc1cncc(COc2cc(O[C@H]3CCc4c(-c5cccc(OCCCN6CC7(C6)CC(F)(F)C7)c5Cl)cccc43)c(Cl)cc2CN[C@H]2CC[C@@H]2O)c1 | 6.30 to 8.30
N#Cc1cncc(COc2cc(O[C@H]3CCc4c(-c5cccc(OCCCN6CC7(C6)CC(F)(F)C7)c5Cl)cccc43)c(Cl)cc2CN[C@@H]2CC[C@H]2O)c1 | > 8.30
Cc1c(OCCCN2[C@H](C)CCC[C@@H]2C)cccc1-c1cccc2c1CC[C@@H]2Oc1cc(OCc2cc(C#N)cc(C#N)c2)c(CNC[C@H]2CCC(=O)N2)cc1Cl | 6.30 to 8.30
Cc1c(OCCCN2CC(F)(F)C2)cccc1-c1cccc2c1CC[C@@H]2Oc1cc(OCc2cc(C#N)cc(C#N)c2)c(CNC[C@H]2CCC(=O)N2)cc1Cl | 6.30 to 8.30
N#Cc1cc(C#N)cc(COc2cc(O[C@H]3CCc4c(-c5cccc(OCCCN6CCC(F)CC6)c5Cl)cccc43)c(Cl)cc2CN[C@H]2CCC(=O)NC2)c1 | 6.30 to 8.30
CC1(F)CCN(CCCOc2cccc(-c3cccc4c3CC[C@@H]4Oc3cc(OCc4cc(C#N)cc(C#N)c4)c(CN[C@H]4CCC(=O)NC4)cc3Cl)c2Cl)CC1 | 6.30 to 8.30
Cc1c(OCCCN2CCCCC2)cccc1-c1cccc2c1CC[C@@H]2Oc1cc(OCc2cncc(C#N)c2)c(CNC[C@H]2CCC(=O)N2)cc1Cl | > 8.30
Cc1c(OCCCN2CCCCC2)cccc1-c1cccc2c1CC[C@@H]2Oc1cc(OCc2cncc(C#N)c2)c(CNC[C@@H]2CCC(=O)N2)cc1Cl | > 8.30
Cc1c(OCCCN2CCC(C)(O)CC2)cccc1-c1cccc2c1CC[C@@H]2Oc1cc(OCc2cc(C#N)cc(C#N)c2)c(CNC[C@@H]2CCC(=O)N2)cc1Cl | > 8.30
N#Cc1cncc(COc2cc(O[C@H]3CCc4c(-c5cccc(OCCCN6CCC6)c5Cl)cccc43)c(Cl)cc2CNC[C@@H]2CCC(=O)N2)c1 | > 8.30
CN1CCC(COc2cccc(-c3cccc4c3CC[C@@H]4Oc3cc(OCc4cncc(C#N)c4)c(CNC[C@@H]4CCC(=O)N4)cc3Cl)c2Cl)C1 (stereo partly drawn) | > 8.30
Cc1c(OCCCN2CCCC[C@H]2C)cccc1-c1cccc2c1CC[C@@H]2Oc1cc(OCc2cc(C#N)cc(C#N)c2)c(CNC[C@H]2CCC(=O)N2)cc1Cl | > 8.30
Cc1c(OCCCN2CCC(C)(C)CC2)cccc1-c1cccc2c1CC[C@@H]2Oc1cc(OCc2cc(C#N)cc(C#N)c2)c(CN[C@H]2CCC(=O)NC2)cc1Cl | 6.30 to 8.30
CC1(F)CCN(CCCOc2cccc(-c3cccc4c3CC[C@@H]4Oc3cc(OCc4cncc(C#N)c4)c(CN4CC5(C4)NC(=O)NC5=O)cc3Cl)c2Cl)CC1 | 6.30 to 8.30
Cc1c(OCCCN2CCC(F)CC2)cccc1-c1cccc2c1CC[C@@H]2Oc1cc(OCc2cc(C#N)cc(C#N)c2)c(CN[C@H]2CCCCNC2=O)cc1Cl | 6.30 to 8.30
CC1(F)CCN(CCCOc2cccc(-c3cccc4c3CC[C@@H]4Oc3cc(OCc4cncc(C#N)c4)c(CN4CCC5(C4)NC(=O)NC5=O)cc3Cl)c2Cl)CC1 (stereo partly drawn) | 6.30 to 8.30

Structure (SMILES) | pIC50
CC1(F)CCN(CCCOc2cccc(-c3cccc4c3CC[C@@H]4Oc3cc(OCc4cncc(C#N)c4)c(CN[C@@H]4CCC(=O)NC4)cc3Cl)c2Cl)CC1 | 6.30 to 8.30
Cc1c(OCCCN2CCCC[C@@H]2C)cccc1-c1cccc2c1CC[C@@H]2Oc1cc(OCc2cc(C#N)cc(C#N)c2)c(CNC[C@H]2CCC(=O)N2)cc1Cl | 6.30 to 8.30
CC1(F)CCN(CCCOc2cccc(-c3cccc4c3CC[C@@H]4Oc3cc(OCc4cncc(C#N)c4)c(CNC[C@H]4CCC(=O)N4)cc3Cl)c2Cl)CC1 | 6.30 to 8.30
Cc1c(OCCCN2CCCC[C@@H]2C)cccc1-c1cccc2c1CC[C@@H]2Oc1cc(OCc2cc(C#N)cc(C#N)c2)c(CNC[C@@H]2CCC(=O)N2)cc1Cl | > 8.30
Cc1c(OCCCN2CCC2)cccc1-c1cccc2c1CC[C@@H]2Oc1cc(OCc2cc(C#N)cc(C#N)c2)c(CNC[C@H]2CCC(=O)N2)cc1Cl | > 8.30
CC1(F)CCN(CCCOc2cccc(-c3cccc4c3CC[C@@H]4Oc3cc(OCc4cncc(C#N)c4)c(CNC[C@@H]4CCC(=O)N4)cc3Cl)c2Cl)CC1 | > 8.30
Cc1c(OCCCN2CCC(C)(F)CC2)cccc1-c1cccc2c1CC[C@@H]2Oc1cc(OCc2cc(C#N)cc(C#N)c2)c(CN2CC3(C2)NC(=O)NC3=O)cc1Cl | 4.70 to 6.30
Cc1c(OCCCN2CCC(C)(F)CC2)cccc1-c1cccc2c1CC[C@@H]2Oc1cc(OCc2cc(C#N)cc(C#N)c2)c(CN[C@H]2CCC(=O)NC2)cc1Cl | 6.30 to 8.30
Cc1c(OCCCN2CCC(C)(F)CC2)cccc1-c1cccc2c1CC[C@@H]2Oc1cc(OCc2cc(C#N)cc(C#N)c2)c(CN[C@@H]2CCC(=O)NC2)cc1Cl | 6.30 to 8.30
Cc1c(OCCCN2CCC(O)CC2(C)C)cccc1-c1cccc2c1CC[C@@H]2Oc1cc(OCc2cc(C#N)cc(C#N)c2)c(CN[C@H]2CCC(=O)NC2)cc1Cl (stereo partly drawn) | > 8.30
Cc1c(OCCCN2CCCC2)cccc1-c1cccc2c1CC[C@@H]2Oc1cc(OCc2cc(C#N)cc(C#N)c2)c(CN[C@H]2CCC(=O)NC2)cc1Cl | > 8.30
Cc1c(OCCCN2CCC(F)CC2)cccc1-c1cccc2c1CC[C@@H]2Oc1cc(OCc2cc(C#N)cc(C#N)c2)c(CNCC(=O)NS(C)(=O)=O)cc1Cl | > 8.30
Cc1c(OCCCN2CCC(C)(F)CC2)cccc1-c1cccc2c1CC[C@@H]2Oc1cc(OCc2cc(C#N)cc(C#N)c2)c(CN2CCC3(C2)NC(=O)NC3=O)cc1Cl (stereo partly drawn) | 6.30 to 8.30
Cc1c(OCCCN2CCC(C)(F)CC2)cccc1-c1cccc2c1CC[C@@H]2Oc1cc(OCc2cc(C#N)cc(C#N)c2)c(CN[C@H]2CCC[C@@H]2O)cc1Cl | 6.30 to 8.30
Cc1c(OCCCN2CCCCC2(C)C)cccc1-c1cccc2c1CC[C@@H]2Oc1cc(OCc2cc(C#N)cc(C#N)c2)c(CNC[C@H]2CCC(=O)N2)cc1Cl | 6.30 to 8.30
Cc1c(OCCCN2CCC(C)(F)C2)cccc1-c1cccc2c1CC[C@@H]2Oc1cc(OCc2cc(C#N)cc(C#N)c2)c(CN[C@H]2CCC(=O)NC2)cc1Cl (stereo partly drawn) | 6.30 to 8.30
CCN1CCC(COc2cccc(-c3cccc4c3CC[C@@H]4Oc3cc(OCc4cncc(C#N)c4)c(CNC[C@@H]4CCC(=O)N4)cc3Cl)c2Cl)C1 (stereo partly drawn) | > 8.30
CC(C)N1CCC(COc2cccc(-c3cccc4c3CC[C@@H]4Oc3cc(OCc4cncc(C#N)c4)c(CNC[C@@H]4CCC(=O)N4)cc3Cl)c2Cl)C1 (stereo partly drawn) | > 8.30
CC(C)N1CCC(COc2cccc(-c3cccc4c3CC[C@@H]4Oc3cc(OCc4cncc(C#N)c4)c(CN[C@H]4CCC(=O)NC4)cc3Cl)c2Cl)C1 (stereo partly drawn) | > 8.30
Cc1c(OCCCN2CCC(F)CC2)cccc1-c1cccc2c1C[C@H](F)[C@@H]2Oc1cc(OCc2cc(C#N)cc(C#N)c2)c(CN[C@H]2CCC(=O)NC2)cc1Cl | 6.30 to 8.30
Cc1c(OCCCN2CCC(C)(F)CC2)cccc1-c1cccc2c1C[C@H](F)[C@@H]2Oc1cc(OCc2cc(C#N)cc(C#N)c2)c(CN[C@H]2CCC(=O)NC2)cc1Cl | 6.30 to 8.30
